# Data reported in patent publication US10780076B2, “Inhibition of cancer cell motility” (Northwestern University, priority 2014, dated 2020).
# What was measured:
# NCI 60 cell line panel = NCI 60 cell line panel screen; format: cell-based, human; settings: initial screening per DTP protocol
# From the text: FIG. 8. […] KBU2046 was submitted to the Developmental Therapeutics Program (DTP) of the US National Cancer Institute (NCI), underwent initial screening across the NCI 60 cell line panel per DTP protocol (Shoemaker, 2006; herein incorporated by reference in its entirety), and the resultant COMPARE diagram is depicted.
# (§1) Additional functional measures of toxicity included a NCI-based screen of the NCI 60-cell line panel (Shoemaker, 2006; herein incorporated by reference in its entirety), expression of estrogen-responsive genes by qRT/PCR (Ding et al., 2007; herein incorporated by reference in its entirety), induction of an estrogen-responsive promoter by luciferase assay (Breen et al., 2013; Catherino and Jordan, 1995; herein incorporated by reference in their entireties), and a hematopoietic stem cell 14-day colony formation assay (Bergan et al., 1996; herein incorporated by reference in its entirety). Protein Data Base (PDB) X-ray crystallographic structural data (PDB IDs: IX7R, IX7J) was used to determine what chemical groups of genistein bound to the ER. The migration of individual cells was assessed by time-lapse video microscopy.
# [1] = Plasma KBU2046 concentration in chow-treated athymic mice; format: in vivo
# Description: (§2) FIGS. 3A-D. KBU2046 inhibits cancer metastasis and prolongs life. (A, B) Inhibition of PCa metastasis. Cohorts of athymic mice bearing human PCa PC3-M cell orthotopic implants (A), or of non-tumor bearing athymic mice (B), were treated with KBU2046 incorporated into chow, and resultant lung metastasis (A) or plasma KBU2046 concentration (B) measured. Values are the mean±SEM. The relationship between dose and metastasis was evaluated by two-sided ANOVA (A). (C) Comprehensive characterization of KBU2046 phannacokinetics. CD1 mice were dosed with 100 mg KBU2046/kg via oral gavage or intravenous injection (iv), and blood collected at the indicated time points. The dotted horizontal line denotes a concentration of 24 nM, which was the concentration of KBU2046 measured in the blood of mice whose metastasis were suppressed by 92% (A, B). […]
# (§3) Orthotopic implantation of human PCa cells and quantification of distant metastasis was performed as described (Pavese et al., 2013; herein incorporated by reference in its entirety). […] Quantification of KBU2046 plasma concentrations was performed by LCMS. […] Critical organs were examined for structural damage using a semi-quantitative histological scoring system (Knodell et al., 1981; herein incorporated by reference in its entirety), while their function was assessed by comprehensive clinical laboratory testing of blood samples. […]
# [2] = system: osteonectin expression in PC3 cells; assay: Gene array screen for differentially expressed genes; format: cell-based, human
# Description: FIGS. 21A-C. KBU2046 disrupts osteonectin expression. PC3 cells were treated +/− with 10 uM KBU2046×3 d (A), or were transfected with siRNA to osteonectin (siOST) or non-targeting (siCO) (B), and osteonectin/GAPDH expression measured by qRT/PCR. (C) PC3 cells were transfected with siOST, siCO, treated with +/−KBU2046, and cell invasion measured.
# Having identified inhibition of Ser^226 phosphorylation as the molecular target of KBU2046 for inhibition of cell motility, experiments were conducted during development of embodiments herein to identify downstream regulators of its action. PC3 cells with KBU2046, and screened for differentially expressed genes using two different SABiosciences (Qiagen) gene array platforms: Human Metastasis Array and Human Extracellular Matrix and Adhesion Molecule Array. […] No other significant effects were identified. Separate experiments confirmed differential expression by gene-specific qRT/PCR (FIG. 21A). […] Clinically, overexpression of osteonectin in primary PCa has been associated with the development of metastasis to bone.
# human prostate cells = assay: Three day cell growth inhibition, prostate cells; format: cell-based; settings: 3 days
# [3] = system: human bone marrow stem cells; assay: Hematopoietic stem cell 14-day colony formation assay; format: cell-based; settings: colonies at 14 days
# Description: (FIG. 2A) Cell invasion. Human prostate metastatic cells (PC3, PC3-M), and HPV transformed normal (1532NPTX, I542NPTX) and primary cancer (1532CPTX, 1542CPTX) cells, were treated with 10 μM genistein (G), KBU2046 (46) or vehicle (CO), and after 3 days, cell invasion was measured. Values are mean±SEM. (FIG. 2B) Single cell migration. Cell migration was measured after treatment for 3 days with 10 μM KBU2046 or vehicle (control). Values are mean±SEM. *Denotes Student's t test P value </=0.05, compared to controls. […] Values are mean±SEM. (FIG. 2D) Human cord blood hematopoietic stem cell colony formation assay. Values are the mean±SD number of total, CFU-GM, CFU-GEMM or BFU-E colonies at 14 days after treatment with KBU2046. […]
# as §1, with “Protein Data Base (PDB) X-ray crystallographic structural data (PDB IDs: IX7R, IX7J) was used to determine what chemical groups of genistein bound to the ER.” left out
# [4] = Pharmacokinetics in CD1 mice; format: in vivo; settings: single oral dose
# Description: as §2
# FIG. 11. […] (top graph) Concentration versus time plot, expressed as ng/ml. The 100 mg dosing data was re-plotted and expressed as nM. […] Values are parameter estimates from a naive pooled data approach in which single plasma concentrations measured for individual animals were pooled for both routes of administration of both doses and modeled simultaneously.
# Orthotopic implantation of human PCa cells and quantification of distant metastasis was performed as described (Pavese et al., 2013; herein incorporated by reference in its entirety). […]
# [5] = system: human PCa PC3-M cell orthotopic implants; assay: Orthotopic murine model of human PCa metastasis; format: in vivo, mice; settings: lung metastasis, KBU2046 in chow, dose-dependent
# Description: as §2, §3
smiles,measurement,setting,value
"O=C1c2ccccc2OCC1c1ccc(F)cc1 (racemic) [KBU2046, 4′-fluoroisoflavanone]",cell toxicity in NCI 60 cell line panel,NCI 60 cell line panel,minimal-to-no cell toxicity
same,plasma concentrations at which metastasis decreased,[1],1.1 to 24 nM
same,suppression of osteonectin expression,[2],2.0 fold
same,toxicity to human prostate cells (cell growth inhibition),human prostate cells,not toxic
same,toxicity to human bone marrow stem cells,[3],not toxic
same,time plasma concentration maintained >24 nM,[4],9.3 h
same,decrease in metastasis,[5],up to 92%
